Data taken from patent US20230391770A1, “METTL3 INHIBITORY COMPOUNDS” (Storm Therapeutics Limited, priority 2020, published 2023).

Legend:
METTL3/14 = METTL3/14 (Homo sapiens (Human), UniProt Q86U44); experiment: METTL3/14 methyltransferase biochemical assay (RapidFire mass spectrometry, METTL3_14 RFMS)
Procedure: The enzymatic assay was established to determine IC50 values for inhibition of RNA methyltransferase activity. The enzyme used was full-length his-tagged METTL3 co-expressed with full length FLAG-tagged METTL14 in a baculovirus expression system. […] The reaction was incubated for further 60 minutes at room temperature, and then quenched by the addition of 40 μL 7.5% TCA with two internal product standards (D4-SAH and ^13C10-SAH). After termination, plates were sealed, centrifuged and stored at 4° C. until analysis. […] RNA methyltransferase activity was measured label free using the RapidFireTM mass spectrometry (RF/MS) platform. Stopped and stable assay plates were analyzed on the Agilent RF300 integrated autosampler/solid-phase extraction (SPE) system coupled to an ABSciex 4000 mass spectrometer for the generation of the product S-adenosyl homocysteine (SAH) and normalized to the ratio of signal of the two internal product standards, respectively. Solvent A was water containing 0.1% (v/v) TCA. Solvent B was acetonitrile/0.1% ammonium acetate (8:2, v/v).

Caov-3 cells = experiment: Caov3 CTG proliferation assay (CellTiter-Glo); format: cell-based; details: Homo sapiens, 120 hours treatment, 30 μM top concentration
Procedure: (§1) Cell treatment and cell growth assessment: 18 hours post-seeding in white 384-Viewplate (6007480, PerkinElmer) at 1500 cells/well, Caov3 cells were treated for 120 hours with compounds inhibiting the METTL3/14 activity (10 serial semi-log dilutions, 30 μM as top concentration). Upon treatment, Coav-3 cells were incubated for 10 min at RT with the CellTiter-Glo reagent (G7571, Promega). Measurement of the luminescence signal was performed on a microplate reader (Ensight, PerkinElmer).

KASUMI-1 cells = experiment: Kasumi cell assay (CellTiter-Glo cell growth); format: cell-based; details: Homo sapiens, 120 hours treatment, 30 μM top concentration
Procedure: Cell culture: KASUMI-1 cells (ACC20, Leibniz-Institut DSMZ Deutsche Sammlung von Mikroorganismen und Zellkulturen GmbH) were grown in RPMI 1640 (31870-025, Gibco) supplemented with 20% fetal bovine serum (F1524, Gibco), 1 mM sodium pyruvate (11360-039, Gibco) and 2 mM Glutamax (35050-038, Gibco) in a 5% CO2 humidified incubator at 37° C.
as §1, with “KASUMI-1” for “18”, “were seeded” for “post-seeding”, “ultra-low attachment 384-well culture plate (MS-9384WZ, SBio)” for “white 384-Viewplate (6007480, PerkinElmer)”, “a final concentration of 250,000 cells/ml (35 μL/well) and” for “1500 cells/well, Caov3 cells were”, “Kasumi1” for “Coav-3”

Sequence of METTL3/14 (Q86U44 whole entry): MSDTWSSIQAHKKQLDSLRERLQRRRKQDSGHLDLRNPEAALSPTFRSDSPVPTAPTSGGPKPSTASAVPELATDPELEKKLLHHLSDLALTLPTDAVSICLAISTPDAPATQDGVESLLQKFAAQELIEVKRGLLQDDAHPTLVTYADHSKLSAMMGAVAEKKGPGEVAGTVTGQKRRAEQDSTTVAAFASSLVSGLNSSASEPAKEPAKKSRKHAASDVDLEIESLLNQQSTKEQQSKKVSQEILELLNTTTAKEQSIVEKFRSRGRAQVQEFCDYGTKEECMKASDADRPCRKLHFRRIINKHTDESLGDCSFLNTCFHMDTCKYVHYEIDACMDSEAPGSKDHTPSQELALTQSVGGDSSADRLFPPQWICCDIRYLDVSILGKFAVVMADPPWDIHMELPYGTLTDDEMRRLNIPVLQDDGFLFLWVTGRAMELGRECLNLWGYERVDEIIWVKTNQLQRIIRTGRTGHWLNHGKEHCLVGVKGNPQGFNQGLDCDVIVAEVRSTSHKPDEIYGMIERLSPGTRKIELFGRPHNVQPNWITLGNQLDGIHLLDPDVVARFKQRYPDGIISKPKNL
Sequence of METTL3/14 (Q9HCE5 whole entry partner): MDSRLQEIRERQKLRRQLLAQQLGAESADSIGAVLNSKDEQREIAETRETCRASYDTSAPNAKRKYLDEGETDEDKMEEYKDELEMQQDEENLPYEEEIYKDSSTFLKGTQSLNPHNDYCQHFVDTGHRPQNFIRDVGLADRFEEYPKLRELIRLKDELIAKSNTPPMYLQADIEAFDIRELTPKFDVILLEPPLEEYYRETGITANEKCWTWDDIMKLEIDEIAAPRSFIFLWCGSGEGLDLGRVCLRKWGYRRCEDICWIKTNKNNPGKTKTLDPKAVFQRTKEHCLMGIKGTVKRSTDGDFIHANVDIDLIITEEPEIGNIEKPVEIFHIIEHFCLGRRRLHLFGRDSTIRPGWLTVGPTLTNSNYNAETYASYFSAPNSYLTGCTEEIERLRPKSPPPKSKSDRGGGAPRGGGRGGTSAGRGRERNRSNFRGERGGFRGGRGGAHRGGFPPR

`O=C(NCc1cn2cc(CNCC34CC(F)(C3)C4)ccc2n1)c1cc(=O)n2ccsc2n1` [Example 19, N-[(6-{[({3-fluorobicyclo[1.1.1]pentan-1-yl}methyl)amino]methyl}imidazo[1,2-a]pyridin-2-yl)methyl]-5-oxo-5H-[1,3]thiazolo[3,2-a]pyrimidine-7-carboxamide] was tested, and the IC50 (METTL3/14) was 6.1 nM, the IC50 (Caov-3 cells) was 364 nM and the IC50 (KASUMI-1 cells) was 1360 nM.
`COc1cc(-c2cn(Cc3cn4cc(CNCC56CC(C5)C6)ccc4n3)nn2)c2cncn2c1` [Example 28, ({bicyclo[1.1.1]pentan-1-yl}methyl)({2-[(4-{6-methoxyimidazo[1,5-a]pyridin-8-yl}-1H-1,2,3-triazol-1-yl)methyl]imidazo[1,2-a]pyridin-6-yl}methyl)amine] was tested, and the IC50 (METTL3/14) was 6.1 nM, the IC50 (Caov-3 cells) was 102 nM and the IC50 (KASUMI-1 cells) was 316 nM.
Compound `COc1cc(-c2cn(Cc3cn4cc(CN5CC6(CCC6)C5)ccc4n3)nn2)c2cncn2c1` [Example 30, 2-({2-[(4-{6-methoxyimidazo[1,5-a]pyridin-8-yl}-1H-1,2,3-triazol-1-yl)methyl]imidazo[1,2-a]pyridin-6-yl}methyl)-2-azaspiro[3.3]heptane] has an IC50 (METTL3/14) of 6.1 nM, an IC50 (Caov-3 cells) of 598 nM and an IC50 (KASUMI-1 cells) of 2080 nM.
For `COc1cncc(-c2cn(Cc3cn4cc(CNCC56CC(F)(C5)C6)ccc4n3)nn2)n1` [Example 44, ({3-fluorobicyclo[1.1.1]pentan-1-yl}methyl)[(2-{[4-(6-methoxypyrazin-2-yl)-1H-1,2,3-triazol-1-yl]methyl}imidazo[1,2-a]pyridin-6-yl)methyl]amine], the IC50 (Caov-3 cells) was 2440 nM and the IC50 (KASUMI-1 cells) was 1990 nM.
`COc1cncc(-c2cn(Cc3cn4cc(CNCC56CC(F)(C5)C6)ccc4n3)nn2)c1` [Example 45, ({3-fluorobicyclo[1.1.1]pentan-1-yl}methyl)[(2-{[4-(5-methoxypyridin-3-yl)-1H-1,2,3-triazol-1-yl]methyl}imidazo[1,2-a]pyridin-6-yl)methyl]amine] gave an IC50 (Caov-3 cells) of 918 nM and an IC50 (KASUMI-1 cells) of 2520 nM.
For `c1cc(-c2cn(Cc3cn4cc(CNCC5CCC5)ccc4n3)nn2)c2nncn2c1` [Example 27, (cyclobutylmethyl)({2-[(4-{[1,2,4]triazolo[4,3-a]pyridin-8-yl}-1H-1,2,3-triazol-1-yl)methyl]imidazo[1,2-a]pyridin-6-yl}methyl)amine], the IC50 (METTL3/14) was 236 nM and the IC50 (KASUMI-1 cells) was 30000 nM.
`COc1cc(-c2cn(Cc3cn4cc(CNCC56CC(F)(C5)C6)ccc4n3)nn2)c2cncn2c1` [Example 26, ({3-fluorobicyclo[1.1.1]pentan-1-yl}methyl)({2-[(4-{6-methoxyimidazo[1,5-a]pyridin-8-yl}-1H-1,2,3-triazol-1-yl)methyl]imidazo[1,2-a]pyridin-6-yl}methyl)amine] was tested, and the IC50 (METTL3/14) was 6.1 nM, the IC50 (Caov-3 cells) was 110 nM and the IC50 (KASUMI-1 cells) was 449 nM.
`COc1cc(-c2cn(Cc3cn4cc(CNCC5CCC5)ccc4n3)nn2)c2cncn2c1` [Example 22, (cyclobutylmethyl)({2-[(4-{6-methoxyimidazo[1,5-a]pyridin-8-yl}-1H-1,2,3-triazol-1-yl)methyl]imidazo[1,2-a]pyridin-6-yl}methyl)amine] was tested, and the IC50 (METTL3/14) was 6.1 nM, the IC50 (Caov-3 cells) was 305 nM and the IC50 (KASUMI-1 cells) was 1150 nM.
`Fc1ncn2cccc(-c3cn(Cc4cn5cc(CNCC6CCC6)ccc5n4)nn3)c12` [Example 25, (cyclobutylmethyl)({2-[(4-{1-fluoroimidazo[1,5-a]pyridin-8-yl}-1H-1,2,3-triazol-1-yl)methyl]imidazo[1,2-a]pyridin-6-yl}methyl)amine] was tested, and the IC50 (METTL3/14) was 15.8 nM, the IC50 (Caov-3 cells) was 2720 nM and the IC50 (KASUMI-1 cells) was 4820 nM.
Work on `COc1cnc(C#N)c(-c2cn(Cc3cn4cc(CNCC56CC(F)(C5)C6)ccc4n3)nn2)c1` [Example 41, 3-{1-[(6-{[({3-fluorobicyclo[1.1.1]pentan-1-yl}methyl)amino]methyl}imidazo[1,2-a]pyridin-2-yl)methyl]-1H-1,2,3-triazol-4-yl}-5-methoxypyridine-2-carbonitrile] yielded an IC50 (METTL3/14) of 16 nM, an IC50 (Caov-3 cells) of 4070 nM and an IC50 (KASUMI-1 cells) of 2660 nM.
`N#Cc1ncc(N2CCOCC2)cc1-c1cn(Cc2cn3cc(CNCC45CC(F)(C4)C5)ccc3n2)nn1` [Example 51, 3-{1-[(6-{[({3-fluorobicyclo[1.1.1]pentan-1-yl}methyl)amino]methyl}imidazo[1,2-a]pyridin-2-yl)methyl]-1H-1,2,3-triazol-4-yl}-5-(morpholin-4-yl)pyridine-2-carbonitrile] gave an IC50 (METTL3/14) of 6 nM, an IC50 (Caov-3 cells) of 1330 nM and an IC50 (KASUMI-1 cells) of 1860 nM.
Work on `COc1cnc(C#N)c(-c2cn(Cc3cn4cc(CN5CCC(C)(C)CC5)ccc4n3)nn2)c1` [Example 39, 3-[1-({6-[(4,4-dimethylpiperidin-1-yl)methyl]imidazo[1,2-a]pyridin-2-yl}methyl)-1H-1,2,3-triazol-4-yl]-5-methoxypyridine-2-carbonitrile] yielded an IC50 (Caov-3 cells) of 5530 nM and an IC50 (KASUMI-1 cells) of 6210 nM.
`c1cc(-c2cn(Cc3cn4cc(CN5CC6(CCC6)C5)ccc4n3)nn2)c2cncn2c1` [Example 29, 2-({2-[(4-{imidazo[1,5-a]pyridin-8-yl}-1H-1,2,3-triazol-1-yl)methyl]imidazo[1,2-a]pyridin-6-yl}methyl)-2-azaspiro[3.3]heptane] was tested, and the IC50 (METTL3/14) was 6.5 nM, the IC50 (Caov-3 cells) was 473 nM and the IC50 (KASUMI-1 cells) was 1570 nM.
In the case of `c1cc(-c2cn(Cc3cn4cc(CNCC5CCC5)ccc4n3)nn2)c2cncn2c1` [Example 23, (cyclobutylmethyl)({2-[(4-{imidazo[1,5-a]pyridin-8-yl}-1H-1,2,3-triazol-1-yl)methyl]imidazo[1,2-a]pyridin-6-yl}methyl)amine], the IC50 (METTL3/14) is reported as 6.1 nM, the IC50 (Caov-3 cells) is reported as 888 nM and the IC50 (KASUMI-1 cells) is reported as 2940 nM.
With `COc1ccncc1-c1cn(Cc2cn3cc(CNCC45CC(F)(C4)C5)ccc3n2)nn1` [Example 47, ({3-fluorobicyclo[1.1.1]pentan-1-yl}methyl)[(2-{[4-(4-methoxypyridin-3-yl)-1H-1,2,3-triazol-1-yl]methyl}imidazo[1,2-a]pyridin-6-yl)methyl]amine] the IC50 (METTL3/14) was 13 nM, the IC50 (Caov-3 cells) was 1380 nM and the IC50 (KASUMI-1 cells) was 4450 nM.
`FC12CC(CNCc3ccc4nc(Cn5cc(-c6cncc(N7CCOCC7)c6)nn5)cn4c3)(C1)C2` [Example 52, ({3-fluorobicyclo[1.1.1]pentan-1-yl}methyl)({[2-({4-[5-(morpholin-4-yl)pyridin-3-yl]-1H-1,2,3-triazol-1-yl}methyl)imidazo[1,2-a]pyridin-6-yl]methyl})amine] showed an IC50 (METTL3/14) of 6 nM, an IC50 (Caov-3 cells) of 540 nM and an IC50 (KASUMI-1 cells) of 1610 nM.
